Species: Rattus norvegicus
Assay: Open TG-GATES - Regimen: Single
Type: toxicity, organism-based, Sprague-Dawley
Set-up: regimen Single, gender Male, age 6 weeks
Conditions: in vivo, po, 100 mg/kg, route gavage, dose level Middle; for APTT / Bas / Eos / Fbg / Hb / Ht / Lym / MCH / MCHC / MCV / Mono / Neu / PT / Plat / RBC / Ret / WBC: tissue Blood; for KIDNEY_L / KIDNEY_R / KIDNEY_TOTAL: tissue Kidney; for LIVER: tissue Liver; for A/G / ALP / ALT / AST / BUN / CRE / Ca / Cl / DBIL / GLC / IP / K / LDH / Na / PL / RALB / TBIL / TC / TG / TP / gamma-GTP: tissue Plasma

## C[C@]12CCC(=O)C=C1CC[C@@H]1[C@@H]2CC[C@@]2(C)[C@H]1CC[C@]2(C)O [METHYLTESTOSTERONE]
3 h
  TERMINAL_BW: 202.8 g
  APTT: 15.1 s
  Bas: 0%
  Eos: 1%
  Fbg: 298.8 mg/dL
  Hb: 12.9 g/dL
  Ht: 37.9%
  Lym: 72.2%
  MCH: 22.2 pg
  MCHC: 34.1%
  MCV: 65 fL
  Mono: 4.2%
  Neu: 22.4%
  PT: 13.1 s
  Plat: 111.5 x10_4/uL
  RBC: 582.8 x10_4/ul
  Ret: 8.9%
  WBC: 65.4 x10_2/uL
  KIDNEY_L: 0.9 g
  KIDNEY_R: 0.9 g
  KIDNEY_TOTAL: 1.8 g
  LIVER: 9.3 g
  A/G: 0.9
  ALP: 1276.2 IU/L
  ALT: 45.6 IU/L
  AST: 74 IU/L
  BUN: 11 mg/dL
  CRE: 0.2 mg/dL
  Ca: 11 mg/dL
  Cl: 106.2 meq/L
  DBIL: 0.01 mg/dL
  GLC: 184.8 mg/dL
  IP: 9.6 mg/dL
  K: 4.3 meq/L
  LDH: 73.8 IU/L
  Na: 141.2 meq/L
  PL: 136.2 mg/dL
  RALB: 2.5 g/dL
  TBIL: 0.042 mg/dL
  TC: 74 mg/dL
  TG: 63 mg/dL
  TP: 5.4 g/dL
  gamma-GTP: 1 IU/L
6 h
  TERMINAL_BW: 202.3 g
  APTT: 16.9 s
  Bas: 0%
  Eos: 1%
  Fbg: 274.4 mg/dL
  Hb: 13 g/dL
  Ht: 37.9%
  Lym: 74.4%
  MCH: 21.5 pg
  MCHC: 34.3%
  MCV: 62.6 fL
  Mono: 3.6%
  Neu: 20.8%
  PT: 13.4 s
  Plat: 103.9 x10_4/uL
  RBC: 606.6 x10_4/ul
  Ret: 8.3%
  WBC: 68.3 x10_2/uL
  KIDNEY_L: 0.9 g
  KIDNEY_R: 0.9 g
  KIDNEY_TOTAL: 1.8 g
  LIVER: 8.3 g
  A/G: 0.9
  ALP: 1515.6 IU/L
  ALT: 38 IU/L
  AST: 75.6 IU/L
  BUN: 9.4 mg/dL
  CRE: 0.2 mg/dL
  Ca: 10.7 mg/dL
  Cl: 107.4 meq/L
  DBIL: 0.014 mg/dL
  GLC: 181.6 mg/dL
  IP: 9.8 mg/dL
  K: 4.3 meq/L
  LDH: 56 IU/L
  Na: 141.2 meq/L
  PL: 126.4 mg/dL
  RALB: 2.5 g/dL
  TBIL: 0.048 mg/dL
  TC: 64 mg/dL
  TG: 49.4 mg/dL
  TP: 5.3 g/dL
  gamma-GTP: 1.2 IU/L
9 h
  TERMINAL_BW: 203.2 g
  APTT: 16.2 s
  Bas: 0%
  Eos: 1%
  Fbg: 296 mg/dL
  Hb: 13.2 g/dL
  Ht: 38.4%
  Lym: 76.8%
  MCH: 21.5 pg
  MCHC: 34.3%
  MCV: 62.9 fL
  Mono: 2.8%
  Neu: 18.8%
  PT: 13.5 s
  Plat: 112.3 x10_4/uL
  RBC: 611.6 x10_4/ul
  Ret: 8.1%
  WBC: 69 x10_2/uL
  KIDNEY_L: 0.9 g
  KIDNEY_R: 0.8 g
  KIDNEY_TOTAL: 1.7 g
  LIVER: 8.1 g
  A/G: 0.9
  ALP: 1516.6 IU/L
  ALT: 37.8 IU/L
  AST: 70.2 IU/L
  BUN: 8.2 mg/dL
  CRE: 0.2 mg/dL
  Ca: 10.5 mg/dL
  Cl: 107.6 meq/L
  DBIL: 0.016 mg/dL
  GLC: 177.6 mg/dL
  IP: 10.4 mg/dL
  K: 4.3 meq/L
  LDH: 69.4 IU/L
  Na: 141.8 meq/L
  PL: 119.2 mg/dL
  RALB: 2.5 g/dL
  TBIL: 0.046 mg/dL
  TC: 53.6 mg/dL
  TG: 89.8 mg/dL
  TP: 5.3 g/dL
  gamma-GTP: 1.2 IU/L
24 h
  TERMINAL_BW: 205.5 g
  APTT: 16.9 s
  Bas: 0%
  Eos: 1%
  Fbg: 278.2 mg/dL
  Hb: 13.1 g/dL
  Ht: 38.5%
  Lym: 77.6%
  MCH: 21.5 pg
  MCHC: 34.1%
  MCV: 62.9 fL
  Mono: 3%
  Neu: 18.2%
  PT: 13.3 s
  Plat: 117.9 x10_4/uL
  RBC: 613 x10_4/ul
  Ret: 7.7%
  WBC: 94.4 x10_2/uL
  KIDNEY_L: 0.9 g
  KIDNEY_R: 0.9 g
  KIDNEY_TOTAL: 1.8 g
  LIVER: 9.5 g
  A/G: 0.9
  ALP: 1929.2 IU/L
  ALT: 51.2 IU/L
  AST: 76.2 IU/L
  BUN: 14.8 mg/dL
  CRE: 0.2 mg/dL
  Ca: 11.1 mg/dL
  Cl: 105.6 meq/L
  DBIL: 0.022 mg/dL
  GLC: 189.2 mg/dL
  IP: 8.5 mg/dL
  K: 4.3 meq/L
  LDH: 97.8 IU/L
  Na: 140.6 meq/L
  PL: 142 mg/dL
  RALB: 2.6 g/dL
  TBIL: 0.032 mg/dL
  TC: 65.4 mg/dL
  TG: 141 mg/dL
  TP: 5.6 g/dL
  gamma-GTP: 1.4 IU/L

Reference: ChEMBL document CHEMBL3885861, “Open TG-GATES”
